Patent publication US20260262647A1, “Synergistic Compositions Containing Guanidine” (Thor GmbH, priority 2023, published 2026)

Tests used:
Format in all cases: cell-based
bacteria mixture A = assay: Emulsion paint inoculated three times with bacteria mixture A, live bacteria count CFU/g; settings: for CFU/g after inoculation: emulsion paint, 7 d
Excerpt: In example 34, the synergistic interaction between guanidine and a zinc compound (zinc oxide) with respect to microbial infestation was examined in an emulsion paint by adding particular amounts of guanidine in the form of guanidine hydrochloride and a zinc compound in the form of zinc oxide, and tested for stability to microbial infestation. The paint tested was an emulsion paint based on styrene-acrylate binder (PVK 77%, pH 8.8) for indoor use, produced in the laboratory, without addition of the usual preservatives.
The samples were inoculated repeatedly, three times in total, with a bacterial cell suspension of the following composition (2% v/w).
• Alcaligenes faecalis NCIMB 13145 • Escherichia coli DSM 13631 • Burkholderia cepacia DSM 9241 • Staphylococcus aureus DSM 799 • Pseudomonas aeruginosa DSM 50071 • Pseudomonas putida DSM 13624
The cell suspension of the bacteria mixture A was produced by growing the individual bacteria at 30° C. for 24 h in liquid culture on a shaker. The growth medium used for the bacteria was Müller-Hinton liquid medium. After growing, the individual liquid cultures were centrifuged, and the cells were resuspended in physiological saline solution. In order to adjust the mixture to a total cell count of 10^9/ml, the individual bacteria suspensions, if necessary, were diluted accordingly before being combined with saline solution. The cell count of the inoculum was determined in each case by chamber counting.
After each inoculation and after incubation at 30° C. for 7 days, microbial infestation was evaluated in the samples by determining the live bacteria count per g of paint (colony-forming units, CFU/g). The CFU/g was determined each time by taking an aliquot (1 g) from the previously homogenized sample and running a serial decadic dilution series in physiological saline solution (0.9% NaCl) by streaking on tryptic soy agar, followed by incubation of the agar plates at 30° C. for 48 h.

[1] = test system: Pseudomonas putida DSM 115323; assay: Minimum inhibitory concentrations and synergy index in Müller-Hinton broth
yeast mixture = assay: Laundry detergent inoculated once with yeast mixture, semiquantitative growth evaluation; design: key: 0: No growth; Minimal growth, 1 to 10 colonies visible over the entire streak; 2: Light growth, maximum 100 colonies; Moderate growth, maximum 300 to 400 colonies; Uniform growth, >400 colonies, single colonies still clearly recognizable; 5: Heavy growth, too many colonies to count, but no growth over the entire streak; 6: Full growth, barely any single colonies still apparent, growth over the entire streak; settings: Example 37, laundry detergent, +8000 ppm guanidine hydrochloride (4944 ppm guanidine)
Excerpt: In examples 35 to 38 below, synergistic interaction between guanidine and antimicrobial substances with respect to microbial infestation was studied using an emulsion paint and a laundry detergent or cleaning composition by adding particular amounts of guanidine salts and isothiazolinones and examining their stability against microbial infestation: […] The laundry detergent was a heavy-duty laundry detergent without preservatives (pH 8.1), and the cleaning composition was an all-purpose detergent without preservatives (pH 7.6), each likewise made in the laboratory, without addition of the otherwise usual conventional preservatives. To each paint was added—individually and in combination—particular concentrations of guanidinium hydrochloride, benzisothiazolinone (BIT), and a mixture of chloromethylisothiazolinone (CIT) and methylisothiazolinone (MIT). The laundry detergent and the cleaning composition were admixed with particular concentrations of guanidinium hydrochloride and benzisothiazolinone (BIT). The resultant batches of the paint thus prepared were inoculated with a mixture of different bacteria species (bacteria mixture B); the batches of the laundry detergent and cleaning compositions thus prepared were inoculated with a yeast mixture. • Pichia manshurica DSM 12249 • Rhodotorula mucilaginosa DSM 12248 • Candida boidinii DSM 13622 • Candida albicans DSM 1386 […] Further steps for establishment of a cell count of the inoculum suspension of 10^8/ml were effected analogously to the production of the bacteria suspension. […] The streaked agar plates were then incubated at 30° C. for 48 hours (bacteria) or at 25° C. for 72 hours (yeasts). After incubation, the bacterial or yeast colonies that have grown on the agar plates were visually evaluated and quantified according to the following scheme: [table]

N=C(N)N [guanidine]
CFU/g after inoculation (bacteria mixture A; Guanidine hydrochloride 1000 ppm (618 ppm guanidine), 1. inoculation): 8.7 × 10^5 CFU/g | CFU/g after inoculation (bacteria mixture A; Guanidine hydrochloride 1000 ppm (618 ppm guanidine), 2. inoculation): >10^6 CFU/g | CFU/g after inoculation (bacteria mixture A; Guanidine hydrochloride 1000 ppm (618 ppm guanidine), 3. inoculation): >10^6 CFU/g | CFU/g after inoculation (bacteria mixture A; Guanidine hydrochloride 2500 ppm (1545 ppm guanidine), 1. inoculation): <100 CFU/g | CFU/g after inoculation (bacteria mixture A; Guanidine hydrochloride 2500 ppm (1545 ppm guanidine), 2. inoculation): <100 CFU/g | CFU/g after inoculation (bacteria mixture A; Guanidine hydrochloride 2500 ppm (1545 ppm guanidine), 3. inoculation): >10^6 CFU/g | CFU/g after inoculation (bacteria mixture A; Guanidine hydrochloride 5000 ppm (3090 ppm guanidine), 1. inoculation): <100 CFU/g | CFU/g after inoculation (bacteria mixture A; Guanidine hydrochloride 5000 ppm (3090 ppm guanidine), 2. inoculation): <100 CFU/g | CFU/g after inoculation (bacteria mixture A; Guanidine hydrochloride 5000 ppm (3090 ppm guanidine), 3. inoculation): <100 CFU/g | QA: Concentration of guanidine as the sole agent that shows an endpoint (bacteria mixture A; guanidine alone in emulsion paint, endpoint after 3 inoculations up to a maximum of 1000 CFU/g): 3090 ppm | Synergy index Qa/QA + Qb/QB (bacteria mixture A; guanidine and zinc in emulsion paint, Qa, Qb): 1.00 | QA: Concentration of guanidine as the sole agent that shows an endpoint ([1]; guanidine (added as guanidine hydrochloride) alone, 48 hours at 30° C.): 6180 ppm | Synergy index Qa/QA + Qb/QB ([1]; guanidine and CIT, Qa, Qb): 1.00 | Bacterial growth (yeast mixture; Day 1): 6 | Bacterial growth (yeast mixture; Day 3): 6
